Measurements as given in PMC11768083, “Crude Drugs for Clearing Heat Contain Compounds Exhibiting Anti-Inflammatory Effects in Interleukin-1β-Treated Rat Hepatocytes” (Molecules, 2025).
“Also recorded” adds a separate entry of the source. Like-named read-outs stand apart in the source and are kept apart here.

What was measured:
[1] = tested on: primary-cultured rat hepatocytes; test: LDH activity in the hepatocyte medium (cytotoxicity); type: cell-based; conditions: for Cytotoxicity / LDH activity of the medium: hepatocytes, 8 h incubation; for LDH activity in the medium (cytotoxicity): at the concentrations of the NO assay, 8 h
Method: (§1) After 8 h of incubation with 1 nM IL-1β and/or a fraction or compound, nitrite (a stable metabolite of NO) was measured in triplicate using the Griess method. The NO concentration in the medium alone was set at 0%, whereas the concentration in the medium including IL-1β alone was set at 100%. […] Cytotoxicity was monitored by estimating the LDH activity in the medium using LDH Cytotoxicity Detection Kits (Takara Bio Inc., Kusatsu, Japan). The Griess reagent was added to the medium and incubated at 20–23 °C for 5 min, and the absorbance at 540 nm was measured to determine the decrease in nitrite. The LDH activity of the whole-cell extract was assumed to be 100%, whereas the LDH activity of the medium alone was assumed to have no cytotoxicity (i.e., less than 5% of the LDH activity of the whole-cell extract).

iNOS mRNA = test: RT-qPCR of iNOS mRNA in IL-1β-treated hepatocytes; type: cell-based, rat; conditions: with IL-1β; normalized to Ef1a mRNA; versus IL-1β alone
Method: (§2) After acclimatization, the Wistar rats were euthanized by the intraperitoneal administration of an anesthetic combination of medetomidine hydrochloride, midazolam, and butorphanol tartrate. Rat livers were used to prepare hepatocytes as previously described. In brief, the liver was perfused with collagenase. The cells were resuspended in Williams’ E (WE) medium supplemented with 10% newborn calf serum, 10 nM dexamethasone, and 10 nM human insulin and seeded at 1.2 ×10^6 cells per 35 mm diameter dish. After the medium was replaced with serum-free WE medium, the cells were incubated overnight. The next day, the medium was replaced with WE medium containing 1 nM recombinant rat IL-1β [54] and/or a fraction or compound. The hepatocytes were further incubated at 37 °C for 4 h before RNA extraction or for 8 h before measuring the NO levels and performing a Western blot analysis of the cell lysates.
(§3) Hepatocytes were lysed in Sepasol I Super G solution (Nacalai Tesque, Inc.) to extract total RNA, which was purified using an RNAqueous Kit and a TURBO DNA-free Kit (Applied Biosystems, Austin, TX, USA). The resulting RNA was converted to cDNA, which was amplified by PCR in triplicate with primers, SYBR Green I, and the Thermal Cycler Dice Real-Time System (Takara Bio Inc.). Ct values were calculated by the ΔΔCt method and then normalized to elongation factor 1α (Ef1a) mRNA [18, 54]. The mRNA levels normalized to the total RNA from the livers of the mice fed a diet alone were set at 100%.

Tnf mRNA = test: RT-qPCR of Tnf mRNA in IL-1β-treated hepatocytes; type: cell-based, rat; conditions: with IL-1β; normalized to Ef1a mRNA; versus IL-1β alone
Method: as §2, §3

Il1r1 mRNA [2] = test: RT-qPCR of Il1r1 mRNA in IL-1β-treated hepatocytes; type: cell-based, rat; conditions: with IL-1β; normalized to Ef1a mRNA; versus IL-1β alone
Method: as §2
as §3, with “The mRNA levels normalized to the total RNA from the livers of the mice fed a diet alone were set at 100%.” left out

[3] = tested on: NO production in IL-1β-treated rat hepatocytes; test: NO production (nitrite, Griess method) in IL-1β-treated primary-cultured rat hepatocytes; type: cell-based; conditions: for IC50: Rattus norvegicus, Hepatocyte
Method: as §2, §1

[4] = tested on: NO production in IL-1β-treated rat hepatocytes; conditions: cited from earlier work
lymphotoxin β (Ltb) mRNA = test: RT-qPCR of Ltb mRNA in IL-1β-treated hepatocytes; type: cell-based, rat; conditions: with IL-1β, 4 h; normalized to Ef1a mRNA
Method: as §2
as §3, with “The mRNA levels normalized to the total RNA from the livers of the mice fed a diet alone were set at 100%.” left out

[5] = tested on: iNOS antisense transcript (iNOS-AS); test: RT-qPCR of iNOS antisense transcript in IL-1β-treated hepatocytes; type: cell-based, rat; conditions: with IL-1β; RNA 3 h after addition
Method: as §2, with “The hepatocytes were further incubated at 37 °C for 4 h before RNA extraction or for 8 h before measuring the NO levels and performing a Western blot analysis of the cell lysates.” left out
as §3

iNOS protein = test: Immunoblot of iNOS protein in IL-1β-treated hepatocytes; type: cell-based, rat; conditions: with IL-1β, 8 h; β-tubulin control
Method: as §2
Hepatocyte lysates were prepared, resolved on a 10% sodium dodecyl sulfate–polyacrylamide gel, and transferred onto a membrane, as previously described. […] The protein of interest was visualized by ECL Western blotting Detection Reagents (Cytiva, Tokyo, Japan) and detected using an Amersham Imager 600 (Cytiva).

[6] = tested on: rat liver injuries caused by ischemia–reperfusion and partial hepatectomy; parameters: method as in PMID 38727775; conditions: cited from earlier work
[7] = tested on: iNOS antisense transcript (iNOS-AS); parameters: method as in PMID 28681120, doi:10.7243/2050-0874-1-2, PMID 27774888; conditions: cited from earlier work
Il1r1 mRNA [8] = conditions: cited from earlier work
[9] = tested on: LPS-treated RAW264.7 cells; parameters: method as in PMID 38339007; conditions: read-out: IC50 for NO production; cited from earlier work
[10] = 1 nM IL-1β, 8 h, means ± SDs, at least three experiments, read-out: IC50 (μM) for NO production in IL-1β-stimulated hepatocytes
[11] = constituents of Atractylodes chinensis rhizomes
[12] = means ± SDs, read-out: IC50 (μM) for NO production in IL-1β-stimulated hepatocytes

In the case of `COc1cc(C2OCC3C(c4ccc(OC)c(OC)c4)OCC23)ccc1O` (single isomer, unassigned; (+)) [(+)-Phillygenin, (+)-phillygenin], the “Cytotoxicity / LDH activity of the medium” value (shortened to “Cytotoxicity / LDH activity”) [1] is reported as “background LDH activity at concentrations up to 300 μM; also recorded: without showing cytotoxicity”, the “iNOS mRNA level” value (iNOS mRNA) is reported as “decreased” and the “Tnf mRNA level” value (Tnf mRNA) is reported as “decreased”. The “Il1r1 mRNA level” value (Il1r1 mRNA [2]) was “decreased” and the IC50 [3, 10] was 193 ± 47.6 µM.

In the case of `CC1=CCC[C@H](C)[C@@]12CC[C@@H](C(C)(C)O)C2` [(+)-hinesol], the “IC50 for inhibition of NO production in hepatocytes” value [4, 11] is listed as “could not be calculated”.

With `C=C[C@H](/C=C\c1ccc(O)cc1)c1ccc(O)cc1` [(−)-Nyasol, (−)-nyasol] the “LDH activity in the medium (cytotoxicity)” value [1] was < 5 % of the activity of the whole-cell extract, the “Ltb mRNA level” value (lymphotoxin β (Ltb) mRNA) was “significantly reduced” and the “iNOS mRNA level” value (iNOS mRNA) was “significantly decreased”. The “Tnf mRNA level” value (Tnf mRNA) was “significantly reduced” and the IC50 [3, 10] was 18.3 ± 2.99 µM.

With `O=c1cc(-c2ccccc2)oc2cc(O)c(O)c(O)c12` [Baicalein, baicalein] the iNOS-AS level [5] was “inhibited iNOS-AS in a concentration-dependent manner”, the “LDH activity in the medium (cytotoxicity)” value [1] was < 5 % of the activity of the whole-cell extract and the “iNOS mRNA level” value (iNOS mRNA) was “reduced”. For the same compound, the iNOS protein level (iNOS protein) was “reduced”, the IC50 [3, 10] was 16.8 ± 7.93 µM and the Liver injury [6] was “attenuated”.

In the case of `O=C(O)[C@H]1O[C@@H](Oc2cc3oc(-c4ccccc4)cc(=O)c3c(O)c2O)[C@H](O)[C@@H](O)[C@@H]1O` [Baicalin], the “IC50 relative to that of baicalein” value ([3]; IL-1β-treated hepatocytes, greater than baicalein) is reported as 3.3 fold and the IC50 ([3]; authors' unpublished data (A.F., K.I., M.N.), read-out: IC50 for NO production in IL-1β-treated hepatocytes) is reported as 55 µM.

For `COc1ccc2cc3[n+](cc2c1OC)CCc1cc2c(cc1-3)OCO2` [Berberine], the IC50 [4, 12] is given as 12 ± 3.4 µM.

In the case of `O=C(/C=C/c1ccc(O)c(O)c1)O[C@@H]1C[C@](O)(C(=O)O)C[C@@H](O)[C@H]1O` [Chlorogenic acid], the iNOS-AS level [7] is given as “reducing iNOS-AS” and the IC50 [4, 12] is given as 652 ± 114 µM.

In the case of `COC(=O)C1=CO[C@@H](O)[C@@H]2C(CO)=CC[C@H]12` [Genipin, genipin], the iNOS-AS level [7] is given as “reducing iNOS-AS” and the IC50 [3, 10] is given as 4.4 ± 0.85 µM.

In the case of `O=c1cc(-c2ccc(Oc3ccc(-c4cc(=O)c5c(O)cc(O)cc5o4)cc3O)cc2)oc2cc(O)cc(O)c12` [Loniflavone, loniflavone], the “Cytotoxicity / LDH activity” value [1] is reported as “Cytotoxicity was not observed”, the “iNOS mRNA level” value (iNOS mRNA) is reported as “decreased” and the “Tnf mRNA level” value (Tnf mRNA) is reported as “decreased”. For the same compound, the “Il1r1 mRNA level” value (Il1r1 mRNA [2]) was “significantly decreased” and the IC50 [3, 10] was 1.64 ± 0.17 µM.

For `CC1(C)OC(=O)C=C[C@]2(C)[C@H]3CC[C@@]4(C)[C@H](c5ccoc5)OC(=O)[C@H]5O[C@]54[C@]3(C)C(=O)C[C@@H]12` [Obakunone], the iNOS-AS level [7] is listed as “reducing iNOS-AS” and the IC50 [4, 12] is listed as 2.6 ± 1.1 µM.

In the case of `COc1cc(O)c2c(c1)O[C@H](c1ccc(O)cc1)CC2=O` [Sakuranetin, (S)-(–)-4′,5-dihydroxy-7-methoxyflavanone], the Il1r1 gene expression (Il1r1 mRNA [8]) is listed as “decreases”.

For `CC(=O)Oc1ccccc1C(=O)O` [aspirin], the Il1r1 gene expression (Il1r1 mRNA [8]; rat hepatocytes) is listed as “suppress”.

For `C/C=C/C#CC#C/C=C/c1ccco1` [atractylodin], the IC50 ([4]; constituents of Atractylodes chinensis rhizomes, read-out: IC50 for inhibition of NO production in hepatocytes) is listed as 8.25 µM.

For `C=C(C)[C@@H]1CC[C@]2(C(=O)O)CC[C@]3(C)[C@H](CC[C@@H]4[C@@]5(C)CC[C@H](O)C(C)(C)[C@@H]5CC[C@]43C)[C@@H]12` [betulinic acid, reference compound], the “Cytotoxicity / LDH activity” value [1] was “increased LDH activity in a concentration-dependent manner”.

For `COC(=O)C1=CO[C@@H](O[C@@H]2O[C@H](CO)[C@@H](O)[C@H](O)[C@H]2O)[C@@H]2C(CO)=CC[C@H]12` [geniposide], the IC50 [9] is given as 136 µM, the “Effect on IL-1β-induced NO production” value ([3]; IL-1β-treated hepatocytes) is given as “did not decrease NO production” and the “Inhibition of NO production” value ([3]; up to a final concentration of 800 μM) is given as “did not inhibit NO production”.

For `CC(C(=O)O)c1ccc(CC2CCCC2=O)cc1` (centres unmarked) [loxoprofen], the Il1r1 gene expression (Il1r1 mRNA [8]; rat hepatocytes) is listed as “suppress”.

In the case of `CC1(C)CC[C@]2(C(=O)O)CC[C@]3(C)C(=CC[C@@H]4[C@@]5(C)CC[C@H](O)C(C)(C)[C@@H]5CC[C@]43C)[C@@H]2C1` [oleanolic acid, reference compound], the “Cytotoxicity / LDH activity” value [1] is reported as “increased LDH activity in a concentration-dependent manner”.

In the case of `C=C1CCC[C@]2(C)CC[C@@H](C(C)(C)O)C[C@@H]12` [β-eudesmol], the “IC50 for inhibition of NO production in hepatocytes” value [4, 11] is listed as “could not be calculated”.
